Legend:
[1] = Host toxicity in tumor-bearing mice; type: in vivo, BALB/c nude mice; conditions: 25 mg/kg daily, end of experiment; for organ weights (liver, kidneys, spleen, lung): versus vehicle
A2780 = test: CCK-8 cell viability, A2780 ovarian cancer cells; type: cell-based, human; conditions: for IC50: Homo sapiens, A2780, 48 h, read-out: IC50 (cell growth inhibition), A2780
OVCAR3 = test: CCK-8 cell viability, OVCAR3 ovarian cancer cells; type: cell-based, human; conditions: for IC50: Homo sapiens, OVCAR-3, 48 h, read-out: IC50 (cell growth inhibition), OVCAR-3
A2780 cells [2] = test: PI staining cell-cycle distribution, A2780; type: cell-based, human; conditions: 24 h
OVCAR3 cells [3] = test: PI staining cell-cycle distribution, OVCAR3; type: cell-based, human; conditions: 24 h
A2780 cells [4] = test: Western blotting of apoptosis, cell cycle and EMT proteins, A2780; type: cell-based, human; conditions: 24 h; for cleavage of caspase 3 and PARP: ARS4 1, 5, 10 μM, DHA or melphalan 10 μM
OVCAR3 cells [5] = test: Western blotting of apoptosis, cell cycle and EMT proteins, OVCAR3; type: cell-based, human; conditions: 24 h; for cleavage of caspase 3 and PARP: ARS4 1, 5, 10 μM, DHA or melphalan 10 μM

SMILES | organ weights (liver, kidneys, spleen, lung) [1] | growth of cells after 12 h of exposure (CCK8) (A2780; A2780, 12 h, data not shown) | IC50 (A2780) [µM] | IC50 (OVCAR3) [µM] | growth of cells after 12 h of exposure (CCK8) (OVCAR3; OVCAR3, 12 h, data not shown) | effect on cell-cycle progression (A2780 cells [2]) | effect on cell-cycle progression (OVCAR3 cells [3]) | cleavage of caspase 3 and PARP (A2780 cells [4]) | cleavage of caspase 3 and PARP (OVCAR3 cells [5]) | EMT phenotype (E-cadherin, Vimentin, Snail, Slug expression) (A2780 cells [4]) | EMT phenotype (E-cadherin, Vimentin, Snail, Slug expression) (OVCAR3 cells [5]) | histological findings (H&E; liver, kidneys, spleen, lung) [1]
N.N.O=C([O-])C1(C(=O)[O-])CCC1.[Pt+2] [Carboplatin] | loss | – | – | – | – | – | – | – | – | – | – | –
C[C@H]1[C@@H](O)O[C@@H]2O[C@@]3(C)CC[C@H]4[C@H](C)CC[C@@H]1[C@@]24OO3 [Compound 1, Dihydroartemisinin] | – | no apparent inhibition of growth | 4.75 | 5.65 | no apparent inhibition of growth | modest arrest in the G0/G1 phase | modest arrest in the G0/G1 phase | less effect | less effect | – | – | –
N[C@@H](Cc1ccc(N(CCCl)CCCl)cc1)C(=O)O [Compound 3, melphalan] | Severe decreases in organ weight | – | 23.2 | 11.6 | – | arrested cells in the S phase | arrested cells in the S phase | less effect | less effect | no obvious effect | no obvious effect | substantial necrosis of liver and spleen parenchymal cells
